Assay results as given in US5132328A, “Alcohol and ether derivatives” (Imperial Chemical Industries PLC, priority 1988, dated 1992).
pIC50: −log10 of the molar value.

What was measured:
cyclooxygenase = target: T1, cyclooxygenase (Homo sapiens, UniProt P23219); assay: Test (b): heparinised human blood challenged with A23187, TxB2 radioimmunoassay; assay type: cell-based
T1 construct: heparinised human blood, prior to challenge with the calcium ionophore A23187; endogenous in cells; host or cells: heparinised human whole blood (platelets and other blood cells, A23187-challenged)
Experimental: (§1) (b) An in vitro assay system involving incubating a test compound with heparinised human blood, prior to challenge with the calcium ionophore A23187 and then indirectly measuring the inhibitory effects on 5-LO by assaying the amount of LTB4 using the specific radioimmunoassay described by Carey and Forder (F. Carey and R. A. Forder, Brit. J. Pharmacol. 1985, 84, 34P) which involves the use of a protein-LTB4 conjugate produced using the procedure of Young et alia (Prostaglandins, 1983, 26(4), 605-613). The effects of a test compound on the enzyme cyclooxygenase (which is involved in the alternative metabolic pathway for arachidonic acid and gives rise to prostaglandins, thromboxanes and related metabolites) may be measured at the same time using the specific radioimmunoassay for thromboxane B2 (TxB2) described by Carey and Forder (see above). This test provides an indication of the effects of a test compound against 5-LO and also cyclooxygenase in the presence of blood cells and proteins. It permits the selectivity of the inhibitory effect on 5-LO or cyclooxygenase to be assessed.

5-LO [1] = target: T2, 5-LO (Rattus norvegicus, UniProt P12527); assay: Test (c): ex vivo assay after (usually oral) administration, blood challenged with A23187, LTB4 radioimmunoassay; assay type: in vivo
T2 construct: blood collection, heparinisation, challenge with A23187 and radioimmunoassay of LTB4 and TxB2; endogenous in cells
T2 sequence (P12527 1-673): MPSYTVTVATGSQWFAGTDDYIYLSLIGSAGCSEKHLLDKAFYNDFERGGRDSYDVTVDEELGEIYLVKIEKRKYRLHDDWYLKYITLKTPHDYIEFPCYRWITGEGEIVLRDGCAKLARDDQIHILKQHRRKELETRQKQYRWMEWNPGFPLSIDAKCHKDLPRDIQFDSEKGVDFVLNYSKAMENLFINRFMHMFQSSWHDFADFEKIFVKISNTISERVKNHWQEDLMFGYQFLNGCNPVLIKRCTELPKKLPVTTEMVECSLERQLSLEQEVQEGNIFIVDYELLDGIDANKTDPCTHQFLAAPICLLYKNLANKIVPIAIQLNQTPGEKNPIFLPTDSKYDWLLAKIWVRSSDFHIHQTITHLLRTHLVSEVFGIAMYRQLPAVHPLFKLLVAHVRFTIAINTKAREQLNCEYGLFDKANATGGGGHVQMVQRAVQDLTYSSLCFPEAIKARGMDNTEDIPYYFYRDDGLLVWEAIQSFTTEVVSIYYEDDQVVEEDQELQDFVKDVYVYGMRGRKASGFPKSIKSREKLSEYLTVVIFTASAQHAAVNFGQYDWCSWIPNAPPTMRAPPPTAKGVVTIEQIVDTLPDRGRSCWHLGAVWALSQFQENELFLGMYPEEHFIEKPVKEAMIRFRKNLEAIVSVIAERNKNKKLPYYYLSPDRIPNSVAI
Experimental: (c) An ex vivo assay system, which is a variation of test b) above, involving administration of a test compound (usually orally as the suspension produced when a solution of the test compound in dimethylsulphoxide is added to carboxymethylcellulose), blood collection, heparinisation, challenge with A23187 and radioimmunoassay of LTB4 and TxB2. This test provides an indication of the bioavailability of a test compound as an inhibitor of 5-LO or cyclooxygenase.

5-LO [2] = target: T3, 5-LO (Homo sapiens, UniProt P09917); assay: Test (b): heparinised human blood challenged with A23187, LTB4 radioimmunoassay; assay type: cell-based
T3 construct: heparinised human blood, prior to challenge with the calcium ionophore A23187; endogenous in cells; host or cells: heparinised human whole blood (blood cells, A23187-challenged)
T3 sequence (P09917 1-674): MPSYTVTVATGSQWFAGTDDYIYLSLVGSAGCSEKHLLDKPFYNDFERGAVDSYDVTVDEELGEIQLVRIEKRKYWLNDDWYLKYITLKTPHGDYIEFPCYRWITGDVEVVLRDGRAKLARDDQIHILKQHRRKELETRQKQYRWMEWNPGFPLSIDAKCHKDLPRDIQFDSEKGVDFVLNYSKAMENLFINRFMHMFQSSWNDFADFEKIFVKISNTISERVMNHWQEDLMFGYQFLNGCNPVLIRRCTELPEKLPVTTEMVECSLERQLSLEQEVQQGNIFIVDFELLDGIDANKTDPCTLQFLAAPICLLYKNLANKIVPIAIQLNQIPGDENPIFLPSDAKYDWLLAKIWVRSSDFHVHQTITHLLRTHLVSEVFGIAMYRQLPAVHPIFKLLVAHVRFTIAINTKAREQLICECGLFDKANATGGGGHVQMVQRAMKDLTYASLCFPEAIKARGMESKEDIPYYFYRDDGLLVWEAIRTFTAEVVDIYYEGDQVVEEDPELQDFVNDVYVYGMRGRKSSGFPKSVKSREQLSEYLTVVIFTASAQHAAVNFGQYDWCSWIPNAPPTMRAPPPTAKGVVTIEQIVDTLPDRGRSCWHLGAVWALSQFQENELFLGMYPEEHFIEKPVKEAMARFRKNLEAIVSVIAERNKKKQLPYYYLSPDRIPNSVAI
Experimental: as §1

T1 sequence (P23219 24-599): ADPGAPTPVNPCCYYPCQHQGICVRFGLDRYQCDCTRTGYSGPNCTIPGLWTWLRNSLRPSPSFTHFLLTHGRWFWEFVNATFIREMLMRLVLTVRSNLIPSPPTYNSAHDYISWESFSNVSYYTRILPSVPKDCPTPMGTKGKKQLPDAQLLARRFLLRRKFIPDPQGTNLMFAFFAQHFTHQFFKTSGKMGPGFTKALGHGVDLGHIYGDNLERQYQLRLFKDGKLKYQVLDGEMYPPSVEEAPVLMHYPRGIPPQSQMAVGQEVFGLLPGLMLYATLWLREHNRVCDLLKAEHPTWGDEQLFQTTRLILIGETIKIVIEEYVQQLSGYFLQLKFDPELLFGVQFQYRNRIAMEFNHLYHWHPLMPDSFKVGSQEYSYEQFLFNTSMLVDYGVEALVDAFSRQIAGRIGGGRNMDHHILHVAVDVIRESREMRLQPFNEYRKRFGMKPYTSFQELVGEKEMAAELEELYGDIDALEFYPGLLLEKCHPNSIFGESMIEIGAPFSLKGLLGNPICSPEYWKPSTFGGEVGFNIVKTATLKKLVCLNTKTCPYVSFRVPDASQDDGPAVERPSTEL

With `CCC(COC)(OC)c1cccc(OCc2ccc3ccccc3c2)c1` (stereo not drawn) [2-methoxy-2-[3-(naphth-2-ylmethoxy)phenyl]but-1-yl methyl ether] as the compound, how does the pIC50 (cyclooxygenase) read?
The pIC50 was less than 4.40.

What about the ED50 (5-LO [1]) of the same compound?
The ED50 was 30 mg/kg.

And the pIC50 (5-LO [2])?
The pIC50 was 6.30.
